Assay type in all cases: in vivo
Assay [1] has as its system Beet Armyworm (Spodoptera exigua). As to the kind of experiment: Bioassay on Beet Armyworm (BAW), 128-well diet tray assay. As to conditions: Beet Armyworm, Table ABC, read-out: BAW rating. In short, it runs like this:
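Second-instar larvae (one to five per well) placed on artificial diet surface-treated with 50 μg/cm^2 test molecule in 90:10 acetone-water, dried, eight wells per molecule. Held at 25° C, 14:10 light-dark, five to seven days; percent mortality recorded per well and averaged across the eight wells.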

The subject of assay [2] is Cabbage Looper (Trichoplusia ni). As to the kind of experiment: Bioassay on Cabbage Looper (CL), 128-well diet tray assay. As to conditions: Cabbage Looper, Table ABC, read-out: CL rating. In a few lines:
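Second-instar larvae, one to five per well, placed on artificial diet surface-treated with 50 μg/cm^2 compound in acetone-water, eight wells per compound. Held 5-7 days at 25° C, 14:10 light-dark; percent mortality per well averaged across wells.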

For assay [3], the system named is Yellow Fever Mosquito (Aedes aegypti). As to the kind of experiment: Bioassay on Yellow Fever Mosquito (YFM) larvae, 96-well plate. As to conditions: Table ABC. The procedure: Example C: Bioassays on Yellow Fever Mosquito (Aedes Aegypti, AEDSAE) (“YFM”)
Certain molecules disclosed in this document were tested against YFM using procedures described in the following paragraph. In the reporting of the results, the “GPA & YFM Rating Table” was used (See Table Section).
Master plates containing 400 μg of a molecule dissolved in 100 μL of dimethyl sulfoxide (DMSO) (equivalent to a 4000 ppm solution) are used. A master plate of assembled molecules contains 15 μL per well. To this plate, 135 μL of a 90:10 water:acetone mixture is added to each well. A robot (Biomek® NXP Laboratory Automation Workstation) is programmed to dispense 15 μL aspirations from the master plate into an empty 96-well shallow plate (“daughter” plate). There are 6 reps (“daughter” plates) created per master. The created daughter plates are then immediately infested with YFM larvae.
The day before plates are to be treated, mosquito eggs are placed in Millipore water containing liver powder to begin hatching (4 g. into 400 mL). After the daughter plates are created using the robot, they are infested with 220 μL of the liver powder/larval mosquito mixture (about 1 day-old larvae). After plates are infested with mosquito larvae, a non-evaporative lid is used to cover the plate to reduce drying. Plates are held at room temperature for 3 days prior to grading. After 3 days, each well is observed and scored based on mortality. The results are indicated in the table entitled “Table ABC: Biological Results” (See Table Section).

With `CN(CC(F)(F)F)C(=O)CNC(=O)c1ccc(/C(F)=C/C(c2cc(Cl)c(Br)c(Cl)c2)C(F)(F)F)cc1C(F)(F)F` (stereo not drawn) [F75, (Z)-4-(3-(4-Bromo-3,5-dichlorophenyl)-1,4,4,4-tetrafluorobut-1-en-1-yl)-N-(2-(methyl(2,2,2-trifluoroethyl)amino)-2-oxoethyl)-2-(trifluoromethyl)benzamide], the pest or weed control at 50 µg/cm2 in assay [1] and in assay [2] was 50 to 100% in each case. For the same compound, in assay [3], the YFM rating result is “A (80-100)”.

Regarding `C[C@@H](NC(=O)c1ccc(/C(F)=C/C(c2cc(Cl)c(Br)c(Cl)c2)C(F)(F)F)cc1C(F)(F)F)C(=O)N(C)CC(F)(F)F` (stereo partly drawn) [F76, 4-((Z)-3-(4-Bromo-3,5-dichlorophenyl)-1,4,4,4-tetrafluorobut-1-en-1-yl)-N—((R)-1-(methyl(2,2,2-trifluoroethyl)amino)-1-oxopropan-2-yl)-2-(trifluoromethyl)benzamide], the pest or weed control at 50 µg/cm2 in assay [1] and in assay [2] was 50 to 100% in each case. The YFM rating result in assay [3] is reported as “A (80-100)”.

Take `CN(CC(F)(F)F)C(=O)CNC(=O)c1ccc(/C(F)=C/C(c2cc(Br)c(Cl)c(Br)c2)C(F)(F)F)cc1C(F)(F)F` (stereo not drawn) [F77, (Z)-4-(3-(3,5-Dibromo-4-chlorophenyl)-1,4,4,4-tetrafluorobut-1-en-1-yl)-N-(2-(methyl(2,2,2-trifluoroethyl)amino)-2-oxoethyl)-2-(trifluoromethyl)benzamide]: the pest or weed control at 50 µg/cm2 in assay [1] and in assay [2] was 50 to 100% each time. Also, the YFM rating result in assay [3] is “A (80-100)”.

Regarding `C[C@@H](NC(=O)c1ccc(/C(F)=C/C(c2cc(Br)c(Cl)c(Br)c2)C(F)(F)F)cc1C(F)(F)F)C(=O)N(C)CC(F)(F)F` (stereo partly drawn) [F78, 4-((Z)-3-(3,5-Dibromo-4-chlorophenyl)-1,4,4,4-tetrafluorobut-1-en-1-yl)-N—((R)-1-(methyl(2,2,2-trifluoroethyl)amino)-1-oxopropan-2-yl)-2-(trifluoromethyl)benzamide], the pest or weed control at 50 µg/cm2 in assay [1] and in assay [2] was 50 to 100% each time. In addition, the YFM rating result in assay [3] was “A (80-100)”.

In the case of `C[C@@H](NC(=O)c1ccc(/C(F)=C/C(c2ccc(Br)c(Br)c2)C(F)(F)F)cc1C(F)(F)F)C(=O)NCC(F)(F)F` (stereo partly drawn) [F79, 4-((Z)-3-(3,4-Dibromophenyl)-1,4,4,4-tetrafluorobut-1-en-1-yl)-N—((R)-1-oxo-1-((2,2,2-trifluoroethyl)amino)propan-2-yl)-2-(trifluoromethyl)benzamide], the pest or weed control at 50 µg/cm2 in assay [1] and in assay [2] was 50 to 100% in each case. Moreover, the YFM rating entry in assay [3] was “A (80-100)”.

As to `O=C(NC1(C(=O)NCC(F)(F)F)CC1)c1ccc(/C(F)=C/C(c2ccc(Br)c(Br)c2)C(F)(F)F)cc1C(F)(F)F` (stereo not drawn) [F80, (Z)-4-(3-(3,4-Dibromophenyl)-1,4,4,4-tetrafluorobut-1-en-1-yl)-N-(1-((2,2,2-trifluoroethyl)carbamoyl)cyclopropyl)-2-(trifluoromethyl)benzamide], the pest or weed control at 50 µg/cm2 in assay [1] and in assay [2] was 50 to 100% in each case. Also, the YFM rating result in assay [3] is “A (80-100)”.

Regarding `C[C@@H](NC(=O)c1ccc(/C(F)=C/C(c2cc(Cl)c(F)c(Cl)c2)C(F)(F)F)cc1C(F)(F)F)C(=O)N(C)CC(F)(F)F` (stereo partly drawn) [F81, 4-((Z)-3-(3,5-Dichloro-4-fluorophenyl)-1,4,4,4-tetrafluorobut-1-en-1-yl)-N—((R)-1-(methyl(2,2,2-trifluoroethyl)amino)-1-oxopropan-2-yl)-2-(trifluoromethyl)benzamide], the pest or weed control at 50 µg/cm2 in assay [1] and in assay [2] was 50 to 100% in each case. For the same compound, in assay [3], the YFM rating entry is “A (80-100)”.

Consider `CN(CC(F)(F)F)C(=O)CNC(=O)c1ccc(/C(F)=C/C(c2cc(Cl)c(F)c(Cl)c2)C(F)(F)F)cc1C(F)(F)F` (stereo not drawn) [F82, (Z)-4-(3-(3,5-Dichloro-4-fluorophenyl)-1,4,4,4-tetrafluorobut-1-en-1-yl)-N-(2-(methyl(2,2,2-trifluoroethyl)amino)-2-oxoethyl)-2-(trifluoromethyl)benzamide], for which the pest or weed control at 50 µg/cm2 in assay [1] and in assay [2] was 50 to 100% each time. The YFM rating result in assay [3] was “A (80-100)”.

As to `C[C@@H](NC(=O)c1ccc(/C(F)=C/C(c2cc(Br)cc(Br)c2)C(F)(F)F)cc1C(F)(F)F)C(=O)N(C)CC(F)(F)F` (stereo partly drawn) [F83, 4-((Z)-3-(3,5-Dibromophenyl)-1,4,4,4-tetrafluorobut-1-en-1-yl)-N—((R)-1-(methyl(2,2,2-trifluoroethyl)amino)-1-oxopropan-2-yl)-2-(trifluoromethyl)benzamide], the pest or weed control at 50 µg/cm2 in assay [1] and in assay [2] was 50 to 100% throughout. In addition, the YFM rating entry in assay [3] is listed as “A (80-100)”.

Turning to `CN(CC(F)(F)F)C(=O)CNC(=O)c1ccc(/C(F)=C/C(c2cc(Br)cc(Br)c2)C(F)(F)F)cc1C(F)(F)F` (stereo not drawn) [F84, (Z)-4-(3-(3,5-Dibromophenyl)-1,4,4,4-tetrafluorobut-1-en-1-yl)-N-(2-(methyl(2,2,2-trifluoroethyl)amino)-2-oxoethyl)-2-(trifluoromethyl)benzamide], the pest or weed control at 50 µg/cm2 in assay [1] and in assay [2] was 50 to 100% in each case. The YFM rating result in assay [3] was “A (80-100)”.

`C=Cc1c(Cl)cc(C(/C=C(\F)c2ccc(C(=O)NCC(=O)N(C)CC(F)(F)F)c(C(F)(F)F)c2)C(F)(F)F)cc1Cl` (stereo not drawn) [F85, (Z)-4-(3-(3,5-Dichloro-4-vinylphenyl)-1,4,4,4-tetrafluorobut-1-en-1-yl)-N-(2-(methyl(2,2,2-trifluoroethyl)amino)-2-oxoethyl)-2-(trifluoromethyl)benzamide]: the pest or weed control at 50 µg/cm2 in assay [1] and in assay [2] was 50 to 100% each time. For the same compound, the YFM rating result in assay [3] is on record as “A (80-100)”.

For the compound `C=Cc1c(Cl)cc(C(/C=C(\F)c2ccc(C(=O)N[C@H](C)C(=O)N(C)CC(F)(F)F)c(C(F)(F)F)c2)C(F)(F)F)cc1Cl` (stereo partly drawn) [F86, 4-((Z)-3-(3,5-Dichloro-4-vinylphenyl)-1,4,4,4-tetrafluorobut-1-en-1-yl)-N—((R)-1-(methyl(2,2,2-trifluoroethyl)amino)-1-oxopropan-2-yl)-2-(trifluoromethyl)benzamide], the pest or weed control at 50 µg/cm2 in assay [1] and in assay [2] was 50 to 100% throughout. The YFM rating entry in assay [3] is “A (80-100)”.

Regarding `CN(CC(F)(F)F)C(=O)CN(C)C(=O)c1ccc(/C(F)=C/C(c2cc(Cl)c(Cl)c(Cl)c2)C(F)(F)F)cc1C(F)(F)F` (stereo not drawn) [F99, (Z)—N-Methyl-N-(2-(methyl(2,2,2-trifluoroethyl)amino)-2-oxoethyl)-4-(1,4,4,4-tetrafluoro-3-(3,4,5-trichlorophenyl)but-1-en-1-yl)-2-(trifluoromethyl)benzamide], the pest or weed control at 50 µg/cm2 in assay [1] and in assay [2] was 50 to 100% in each case. The YFM rating result in assay [3] was “A (80-100)”.

As for `Cc1cc(C(/C=C(\F)c2ccc(C(=O)N[C@H](C)C(=O)N(C)CC(F)(F)F)c(C(F)(F)F)c2)C(F)(F)F)cc(C)c1Cl` (stereo partly drawn) [F102, 4-((Z)-3-(4-Chloro-3,5-dimethylphenyl)-1,4,4,4-tetrafluorobut-1-en-1-yl)-N—((R)-1-(methyl(2,2,2-trifluoroethyl)amino)-1-oxopropan-2-yl)-2-(trifluoromethyl)benzamide], the pest or weed control at 50 µg/cm2 in assay [1] and in assay [2] was 50 to 100% each time. The YFM rating result in assay [3] is “A (80-100)”.
